Format in all cases: cell-based
One experiment concerns Klebsiella pneumoniae. The experiment is described as follows: MIC by serial agar dilution, Klebsiella pneumoniae. The note with it: Klebsiella pneumoniae strain 2363 Ge; Iso-Sensitest agar, 37° C., approx. 20 hours. The method, then:
(§1) The minimum inhibitory concentrations (MICs) were determined by serial dilution methods using Iso-Sensitest agar (Oxoid). For each test substance, a series of agar plates was prepared whose active compound concentrations decreased as the dilution was doubled. The agar plates were inoculated using a multipoint inoculator (Denley). The cultures used for inoculation were overnight cultures of the pathogen which had previously been diluted to such an extent that each inoculation point contained approximately 10^4 colony-forming units. The inoculated agar plates were incubated at 37° C., and the microbial growth was read off after approximately 20 hours.
(§2) The following table lists the MIC values of some of the compounds according to the invention in comparison with 9-fluoro-3-methyl-10-(4-methyl-1-piperazinyl)-7-oxo-1H,3H,7H-pyrido[3,2,1- i,j]-[3,1]-benzoxazine-6-carboxylic acid (EP-O 373 531) as reference compound.
For orientation: In agar dilution the substance is mixed into plates at graded concentrations.

The next experiment has as its system Enterobacter. The experiment is described as follows: MIC by serial agar dilution, Enterobacter. The note with it: Enterobacter strain 0,4 Ge 02-33; Iso-Sensitest agar, 37° C., approx. 20 hours. The method, then:
as §1, §2

Another experiment deals with Pseudomonas. The experiment is described as follows: MIC by serial agar dilution, Pseudomonas. The conditions noted are these: Pseudomonas strain BS 698 TGD; Iso-Sensitest agar, 37° C., approx. 20 hours. The method, then: as §1, §2
For a further experiment, the system named is Salmonella. The experiment is described as follows: MIC by serial agar dilution, Salmonella. The conditions noted are these: Salmonella strain 1 Fr; Iso-Sensitest agar, 37° C., approx. 20 hours. The method, then: as §1, §2
The next experiment concerns E. coli. The experiment is described as follows: MIC by serial agar dilution, E. coli. The conditions noted are these: Escherichia coli, 20 h, Iso-Sensitest agar, 37° C., approx. 20 hours. The method, then:
as §1, §2

In another experiment the test system is Staphylococcus aureus. The experiment is described as follows: MIC by serial agar dilution, Staphylococcus aureus. The conditions noted are these: 20 h, Iso-Sensitest agar, 37° C., approx. 20 hours. The method, then:
as §1, §2

[1] abbreviates: E. coli strain Z 431 Lit, read-out: MIC.
[2] abbreviates: Staphylococcus aureus strain 3781 Ge.
Where [3] appears, read: Staphylococcus aureus strain Z 2 Lit.

In brackets after ≈: the same amount, converted by molar mass. Read-outs that look alike come from different tables or passages of the source.

Usually MIC stands for the lowest concentration found to suppress growth.

Consider `CNC1C=CCC2CN(c3c(F)cc4c(=O)c(C(=O)O)cn5c4c3COC5C)CC21` (centres unmarked) [Example 5, 9-Fluoro-3-methyl-10-(2-methylamino-8-azabicyclo[4.3.0]non-3-en-8-yl)-7-oxo-1H,3H,7H-pyrido [3,2,1-i,j][3,]benzoxazine-6-carboxylic acid], for which the minimal inhibitory concentration (MIC) against Klebsiella pneumoniae is 0.12 µg/mL (≈ 0.29 µM); against Enterobacter, 0.12 µg/mL (≈ 0.29 µM); against Pseudomonas it was 16 µg/mL (≈ 38.7 µM); against Salmonella it was 0.12 µg/mL (≈ 0.29 µM); against E. coli (E. coli strain 21 Bui) it was 4 µg/mL (≈ 9.67 µM); in the experiment on E. coli (setting [1]), ≤ 0.015 µg/mL. In addition, the MIC in the experiment on Staphylococcus aureus (setting [2]) and in the experiment on Staphylococcus aureus (setting [3]) was 0.12 µg/mL (≈ 0.29 µM) throughout.
In the case of `CC1OCc2c(N3CC4CC=CC(N)C4C3)c(F)cc3c(=O)c(C(=O)O)cn1c23` (centres unmarked) [Example 1, 10-(2-Amino-8-azabicyclo[4,3,0]non-3-en-8-yl)-9-fluoro-3-methyl-7-oxo-1H,3H ,7H-pyrido-[3,2,1-i,j][3,1]benzoxazine6-carboxylic acid], the MIC in the experiment with Klebsiella pneumoniae amounted to 0.06 µg/mL (≈ 0.15 µM); against Enterobacter, 0.25 µg/mL (≈ 0.626 µM); against Pseudomonas it was 4 µg/mL (≈ 10 µM); with Salmonella, 0.06 µg/mL (≈ 0.15 µM); with E. coli (E. coli strain 21 Bui) it was 4 µg/mL (≈ 10 µM); with E. coli (setting [1]), 0.015 µg/mL (≈ 0.0376 µM). For the same compound, the MIC with Staphylococcus aureus (setting [2]) and in the experiment on Staphylococcus aureus (setting [3]) was 0.12 µg/mL (≈ 0.3 µM) throughout.
For `CC1OCc2c(N3CC4CCCNC4C3)c(F)cc3c(=O)c(C(=O)O)cn1c23` (centres unmarked) [Example 4, 10-(2.8-Diazabicyclo[4,3,0]nonan-8-yl)-9-fluoro-3-methyl-7-oxo-1H,3H,7H-pyr ido-[3,2,1-i,j][3,1]benzoxazine-6-carboxylic acid], the MIC with Klebsiella pneumoniae is 0.12 µg/mL (≈ 0.31 µM); with Enterobacter, 0.12 µg/mL (≈ 0.31 µM); against Pseudomonas, 8 µg/mL (≈ 20.6 µM); with Salmonella it was 0.25 µg/mL (≈ 0.645 µM); against E. coli (E. coli strain 21 Bui), 4 µg/mL (≈ 10.3 µM); in the experiment with E. coli (setting [1]), 0.06 µg/mL (≈ 0.155 µM). Further, the MIC in the experiment on Staphylococcus aureus (setting [2]) turned out to be 8 µg/mL (≈ 20.6 µM); in the experiment on Staphylococcus aureus (setting [3]), 0.5 µg/mL (≈ 1.29 µM).
Turning to `CC1OCc2c(N3CCN(C)CC3)c(F)cc3c(=O)c(C(=O)O)cn1c23` (centres unmarked) [Reference, 9-fluoro-3-methyl-10-(4-methyl-1-piperazinyl)-7-oxo-1H,3H,7H-pyrido[3,2,1-i,j]-[3,1]-benzoxazine-6-carboxylic acid, reference compound], the MIC worked out at 0.5 µg/mL (≈ 1.38 µM) in the experiment with Klebsiella pneumoniae; 1 µg/mL (≈ 2.77 µM) in the experiment on Enterobacter; 64 µg/mL (≈ 177 µM) against Pseudomonas; 1 µg/mL (≈ 2.77 µM) against Salmonella; 0.05 µg/mL (≈ 0.138 µM) in the experiment on E. coli (E. coli strain 21 Bui); 0.05 µg/mL (≈ 0.138 µM) with E. coli (E. coli strain Z 431 Lit). The minimum inhibitory concentration (MIC) is 128 µg/mL (≈ 354 µM) in the experiment with Staphylococcus aureus (setting [2]) and 16 µg/mL (≈ 44.3 µM) against Staphylococcus aureus (setting [3]).

Source of the values: patent US5854241A, “Pyrido[3,2,1-I,J][3,1]benzoxazine derivatives” (Bayer Aktiengesellschaft, priority 1994, dated 1998).
